PubChem BioAssay (NCI)
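1) Cells in 96-well plates. 2) Compound, 48 h, 5 concentrations. 3) Linear interpolation between surrounding doses. 4) Unreached endpoint = highest concentration. TGI: total growth inhibition.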

Legend:
Assay in all cases: DTP human tumour cell line panel, 48 h
HT29 colon = system: HT29 colon
OVCAR-4 ovarian = system: OVCAR-4 ovarian
SF-295 CNS = system: SF-295 CNS
U251 CNS = system: U251 CNS
DMS 273 small cell lung = system: DMS 273 small cell lung
HCT-116 colon = system: HCT-116 colon
XF 498 CNS = system: XF 498 CNS
SK-MEL-28 melanoma = system: SK-MEL-28 melanoma
A549 NSCLC = system: A549 NSCLC
LOX IMVI melanoma = system: LOX IMVI melanoma
MALME-3M melanoma = system: MALME-3M melanoma
LXFL 529 NSCLC = system: LXFL 529 NSCLC
IGROV1 ovarian = system: IGROV1 ovarian
NCI-H226 lung = system: NCI-H226 lung
ACHN renal = system: ACHN renal
HOP-18 NSCLC = system: HOP-18 NSCLC
NCI-H23 lung = system: NCI-H23 lung
KM12 colon = system: KM12 colon
HL-60(TB) leukemia = system: HL-60(TB) leukemia
MOLT-4 leukemia = system: MOLT-4 leukemia
SR leukemia = system: SR leukemia
UACC-62 melanoma = system: UACC-62 melanoma
SNB-78 CNS = system: SNB-78 CNS
UACC-257 melanoma = system: UACC-257 melanoma
DMS 114 small cell lung = system: DMS 114 small cell lung
RPMI-8226 leukemia = system: RPMI-8226 leukemia
RXF 393 renal = system: RXF 393 renal
786-0 renal = system: 786-0 renal
OVCAR-5 ovarian = system: OVCAR-5 ovarian
SNB-19 CNS = system: SNB-19 CNS
OVCAR-3 ovarian = system: OVCAR-3 ovarian
NCI-H460 lung = system: NCI-H460 lung
A498 renal = system: A498 renal
EKVX NSCLC = system: EKVX NSCLC
OVCAR-8 ovarian = system: OVCAR-8 ovarian
HCC-2998 colon = system: HCC-2998 colon
COLO 205 colon = system: COLO 205 colon
HCT-15 colon = system: HCT-15 colon
SK-OV-3 ovarian = system: SK-OV-3 ovarian
HOP-92 NSCLC = system: HOP-92 NSCLC
K-562 leukemia = system: K-562 leukemia
CCRF-CEM leukemia = system: CCRF-CEM leukemia
SK-MEL-2 melanoma = system: SK-MEL-2 melanoma
SF-268 CNS = system: SF-268 CNS
M14 melanoma = system: M14 melanoma
M19-MEL melanoma = system: M19-MEL melanoma
SN12C renal = system: SN12C renal
TK-10 renal = system: TK-10 renal
HOP-62 NSCLC = system: HOP-62 NSCLC
KM20L2 colon = system: KM20L2 colon
UO-31 renal = system: UO-31 renal
NCI-H522 lung = system: NCI-H522 lung
SF-539 CNS = system: SF-539 CNS
DLD-1 colon = system: DLD-1 colon
SW-620 colon = system: SW-620 colon
SNB-75 CNS = system: SNB-75 CNS
SK-MEL-5 melanoma = system: SK-MEL-5 melanoma

SMILES: NC(=S)N1N=C2c3ccccc3CC[C@H]2[C@@H]1c1cccs1
- TGI (HT29 colon): 73.3 µM
- TGI (OVCAR-4 ovarian): > 100 µM
- TGI (SF-295 CNS): 58.1 µM
- TGI (U251 CNS): > 100 µM
- TGI (DMS 273 small cell lung): 36.6 µM
- TGI (HCT-116 colon): > 100 µM
- TGI (XF 498 CNS): > 100 µM
- TGI (SK-MEL-28 melanoma): > 100 µM
- TGI (A549 NSCLC): > 100 µM
- TGI (LOX IMVI melanoma): > 100 µM
- TGI (MALME-3M melanoma): 80.2 µM
- TGI (LXFL 529 NSCLC): > 100 µM
- TGI (IGROV1 ovarian): > 100 µM
- TGI (NCI-H226 lung): > 100 µM
- TGI (ACHN renal): > 100 µM
- TGI (HOP-18 NSCLC): > 100 µM
- TGI (NCI-H23 lung): 87.9 µM
- TGI (KM12 colon): > 100 µM
- TGI (HL-60(TB) leukemia): 42.8 µM
- TGI (MOLT-4 leukemia): 94.5 µM
- TGI (SR leukemia): 63 µM
- TGI (UACC-62 melanoma): > 100 µM
- TGI (SNB-78 CNS): > 100 µM
- TGI (UACC-257 melanoma): > 100 µM
- TGI (DMS 114 small cell lung): 61.1 µM
- TGI (RPMI-8226 leukemia): > 100 µM
- TGI (RXF 393 renal): 83 µM
- TGI (786-0 renal): > 100 µM
- TGI (OVCAR-5 ovarian): > 100 µM
- TGI (SNB-19 CNS): > 100 µM
- TGI (OVCAR-3 ovarian): > 100 µM
- TGI (NCI-H460 lung): > 100 µM
- TGI (A498 renal): > 100 µM
- TGI (EKVX NSCLC): > 100 µM
- TGI (OVCAR-8 ovarian): > 100 µM
- TGI (HCC-2998 colon): > 100 µM
- TGI (COLO 205 colon): 40 µM
- TGI (HCT-15 colon): > 100 µM
- TGI (SK-OV-3 ovarian): > 100 µM
- TGI (HOP-92 NSCLC): > 100 µM
- TGI (K-562 leukemia): 35.5 µM
- TGI (CCRF-CEM leukemia): 81.5 µM
- TGI (SK-MEL-2 melanoma): 79 µM
- TGI (SF-268 CNS): > 100 µM
- TGI (M14 melanoma): 60.8 µM
- TGI (M19-MEL melanoma): > 100 µM
- TGI (SN12C renal): > 100 µM
- TGI (TK-10 renal): > 100 µM
- TGI (HOP-62 NSCLC): > 100 µM
- TGI (KM20L2 colon): 62.9 µM
- TGI (UO-31 renal): > 100 µM
- TGI (NCI-H522 lung): 56.1 µM
- TGI (SF-539 CNS): > 100 µM
- TGI (DLD-1 colon): > 100 µM
- TGI (SW-620 colon): > 100 µM

SMILES: CN1C2C=C(c3ccccc3)CC1CC2 (stereo unspecified)
- TGI (SNB-75 CNS): > 100 µM
- TGI (HT29 colon): > 100 µM
- TGI (SF-295 CNS): > 100 µM
- TGI (U251 CNS): > 100 µM
- TGI (HCT-116 colon): > 100 µM
- TGI (XF 498 CNS): > 100 µM
- TGI (SK-MEL-28 melanoma): > 100 µM
- TGI (A549 NSCLC): > 100 µM
- TGI (LOX IMVI melanoma): > 100 µM
- TGI (MALME-3M melanoma): > 100 µM
- TGI (LXFL 529 NSCLC): > 100 µM
- TGI (IGROV1 ovarian): > 100 µM
- TGI (ACHN renal): > 100 µM
- TGI (HOP-18 NSCLC): > 100 µM
- TGI (NCI-H23 lung): > 100 µM
- TGI (KM12 colon): > 100 µM
- TGI (HL-60(TB) leukemia): > 100 µM
- TGI (MOLT-4 leukemia): > 100 µM
- TGI (SR leukemia): > 100 µM
- TGI (UACC-62 melanoma): > 100 µM
- TGI (UACC-257 melanoma): > 100 µM
- TGI (RPMI-8226 leukemia): > 100 µM
- TGI (RXF 393 renal): > 100 µM
- TGI (786-0 renal): > 100 µM
- TGI (OVCAR-5 ovarian): > 100 µM
- TGI (SNB-19 CNS): > 100 µM
- TGI (OVCAR-3 ovarian): > 100 µM
- TGI (NCI-H460 lung): > 100 µM
- TGI (A498 renal): > 100 µM
- TGI (EKVX NSCLC): > 100 µM
- TGI (OVCAR-8 ovarian): > 100 µM
- TGI (SK-MEL-5 melanoma): > 100 µM
- TGI (HCC-2998 colon): > 100 µM
- TGI (COLO 205 colon): > 100 µM
- TGI (HCT-15 colon): > 100 µM
- TGI (SK-OV-3 ovarian): > 100 µM
- TGI (HOP-92 NSCLC): > 100 µM
- TGI (K-562 leukemia): > 100 µM
- TGI (CCRF-CEM leukemia): > 100 µM
- TGI (SK-MEL-2 melanoma): > 100 µM
- TGI (SF-268 CNS): > 100 µM
- TGI (M14 melanoma): > 100 µM
- TGI (M19-MEL melanoma): > 100 µM
- TGI (SN12C renal): > 100 µM
- TGI (TK-10 renal): > 100 µM
- TGI (KM20L2 colon): > 100 µM
- TGI (UO-31 renal): > 100 µM
- TGI (NCI-H522 lung): > 100 µM
- TGI (SF-539 CNS): > 100 µM
- TGI (DLD-1 colon): > 100 µM
- TGI (SW-620 colon): > 100 µM
